One may read the Kd as the free concentration of one partner at which half of the binding sites on the other are occupied at equilibrium, for simple one-to-one binding.

Assay [1] addresses T1, Recombinant Human His-Tagged Cadherin-11 Protein (CDH11) (Homo sapiens, UniProt P55287).
T1 construct: commercial recombinant His-tagged protein (Sino Biological); amine-coupled to CM7 chip
T1 sequence (P55287 54-617 limits assumed): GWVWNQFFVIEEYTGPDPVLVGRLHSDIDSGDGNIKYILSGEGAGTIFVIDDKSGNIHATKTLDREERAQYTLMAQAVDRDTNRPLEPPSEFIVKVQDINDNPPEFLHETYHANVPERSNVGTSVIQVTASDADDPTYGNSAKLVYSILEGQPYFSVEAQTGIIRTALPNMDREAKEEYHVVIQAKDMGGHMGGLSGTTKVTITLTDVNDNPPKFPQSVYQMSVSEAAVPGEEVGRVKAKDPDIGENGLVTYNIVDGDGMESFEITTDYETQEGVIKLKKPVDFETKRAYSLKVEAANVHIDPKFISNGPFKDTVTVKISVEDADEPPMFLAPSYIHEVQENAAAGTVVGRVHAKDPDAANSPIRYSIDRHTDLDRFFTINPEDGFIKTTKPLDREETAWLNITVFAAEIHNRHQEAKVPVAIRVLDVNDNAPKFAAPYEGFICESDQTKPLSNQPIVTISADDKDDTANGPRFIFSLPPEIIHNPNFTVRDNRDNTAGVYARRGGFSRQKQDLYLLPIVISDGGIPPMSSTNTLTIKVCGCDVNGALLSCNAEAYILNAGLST
The experiment in a line: surface plasmon resonance (Biacore, CM7 chip, protein immobilised). The assay is classed as binding.

Assay [2] has as its target T2, CDH11 (SACC-83 cells) (Homo sapiens, UniProt P55287).
T2 construct: endogenous CDH11 in intact SACC-83 cells, untagged, detected by western blot with anti-CDH11 antibody
T2 sequence (P55287 54-796): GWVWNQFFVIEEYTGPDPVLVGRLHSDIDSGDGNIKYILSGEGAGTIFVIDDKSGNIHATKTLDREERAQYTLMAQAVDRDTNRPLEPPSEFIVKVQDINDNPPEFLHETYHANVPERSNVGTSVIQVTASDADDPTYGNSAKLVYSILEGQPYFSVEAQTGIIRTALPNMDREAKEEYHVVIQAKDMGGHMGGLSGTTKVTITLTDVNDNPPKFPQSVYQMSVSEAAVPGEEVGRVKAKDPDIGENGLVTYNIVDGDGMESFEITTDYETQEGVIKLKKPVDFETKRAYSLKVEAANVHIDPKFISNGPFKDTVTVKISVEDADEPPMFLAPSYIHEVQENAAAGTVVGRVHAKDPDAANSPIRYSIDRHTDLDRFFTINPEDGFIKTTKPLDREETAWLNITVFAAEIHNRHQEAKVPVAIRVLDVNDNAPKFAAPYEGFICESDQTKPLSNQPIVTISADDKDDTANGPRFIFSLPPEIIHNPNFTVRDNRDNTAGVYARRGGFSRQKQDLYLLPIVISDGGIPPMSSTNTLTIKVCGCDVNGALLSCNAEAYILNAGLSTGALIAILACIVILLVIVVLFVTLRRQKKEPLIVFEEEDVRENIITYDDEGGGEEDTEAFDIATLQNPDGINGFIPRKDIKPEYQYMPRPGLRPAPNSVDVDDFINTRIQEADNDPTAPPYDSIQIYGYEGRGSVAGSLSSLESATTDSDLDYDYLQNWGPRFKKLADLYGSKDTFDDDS
The experiment in a line: cellular thermal shift assay (western blot). It is filed as cell-based. Particulars: intact cells, 6 h treatment at cell-viability IC50 dose; 53-66 °C, 3 min. In general terms: In western blotting, separated proteins are transferred to a membrane and probed.

Like-named read-outs stand apart in the source and are kept apart here.

Regarding `Cc1ccc(-c2cc(C(F)(F)F)nn2-c2ccc(S(N)(=O)=O)cc2)cc1` [CXB, Celecoxib], the Kd in assay [1] came out at 4.67 µM. Further, the “cellular thermal shift assay (western blot)” value in assay [2] is “All three compounds exhibited significant binding capability toward CDH11”.

`Cc1ccc(C)c(-c2cc(C(F)(F)F)nn2-c2ccc(S(N)(=O)=O)cc2)c1` [DMC, Dimethylcelecoxib]: the Kd in assay [1] is 10.9 µM. In addition, in assay [2], the “cellular thermal shift assay (western blot)” value is “All three compounds exhibited significant binding capability toward CDH11”.

As to SD-133, the Kd in assay [1] (25 °C, analyte 3.125-100 µM) amounted to 27.4 µM.

The values above are taken from paper PMC11848559, “Inhibition of CDH11 Activates cGAS‐STING by Stimulating Branched Chain Amino Acid Catabolism and Mitigates Lung Metastasis of Adenoid Cystic Carcinoma” (Advanced Science, 2024).
